{
  "source": "patent US12590963B2",
  "about": "“Anti-cancer treatment of preselected subjects and screening methods to identify susceptible subjects” (TUDAG TU Dresden Aktiengesellschaft, priority 2018, dated 2026)",
  "test_system": "U-87 cells",
  "assay": "Drug screening of FDA-approved compound library, cell viability by ATP levels (ATPLite)",
  "assay_type": "cell-based, human",
  "conditions": "FGFJI medium",
  "procedure": "A library of 1,600 FDA-approved compounds was screened on U-87 cells cultured in the improved conditions. Each drug was screened at both 3 micromolar and 10 micromolar concentrations. Cell viability was assessed by measuring ATP levels.\nDrugs that opposed cell viability were further investigated. These drugs were re-screened under the more common cell culture conditions (in serum-supplemented RMPI medium, where cells are more differentiated). Some drugs were identified that also opposed growth under the more differentiated conditions. We also identified some drugs that only opposed growth in the improved conditions. It was focused on the latter drugs only as being the target compounds of the present invention.\nWhite Corning 384 well plates (Cat #3570) were coated with 40 ul of […] polyornithine (Sigma, #P-365) at 370C overnight. The next day the plates were washed 5 times with water using a BioTek EL 406 plate washer. The plates were then coated with 40 ul of 1 mg/ml fibronectin (R&D Systems, #1030-Fn) for 2 hours at 370C and then washed 2 times with PBS. Either 15nl or 50nl of either 10 mM library compounds (MicroSource Pharmakon library) or 100% DMSO as negative control or 1 mM Staurosporine (ACROS #328532500) were dispensed with a Labcyte Echo 550 to screen the library at 3u M and 10 μM respectively. U87 cells were seeded in the plates with a WellMate drop dispenser (ThermoFischer) at a density of 3000 cells per well in 50 μl N2 medium and incubated for 20 hours at 37 °C in 5% C02. Cell viability was assayed using Perkin Elmer ATPLite (Cat 6016731) according to vendor's instructions. For the dose dependent verification assay, cells were seeded in N2 medium with or without serum to test the specificity of compound action.\nA library of 1,600 FDA-approved compounds was screened at two different concentrations (10 μM and 3 μM) on U-87 cells cultured in FGFJI (FIG. 8).",
  "key": {"[1]": {"conditions": "10 μM, second value of the cell"}},
  "data": [
    {"smiles": "CC(C)(C)CC(C)(C)c1ccc(O)c(Cc2ccc(Cl)cc2Cl)c1", "note": "[CLOFOCTOL, 2-[(2,4-dichlorophenyl)methyl]-4-(2,4,4-trimethylpentan-2-yl)phenol]", "values": [
      {"measurement": "ATP assay score (3 μM, 10 μM)", "setting": "3 μM, first value of the cell", "result": "−11"},
      {"measurement": "ATP assay score (3 μM, 10 μM)", "setting": "[1]", "result": "−5"}
    ]},
    {"smiles": "CC[C@@H](C(=O)[C@@H](C)[C@@H](O)[C@H](C)CCc1ccc(C)c(O)c1C(=O)[O-])[C@H]1O[C@](CC)([C@H]2CC[C@](O)(CC)[C@H](C)O2)C[C@@H]1C.[Na+]", "note": "[LASALOCID Na, sodium 6-[(3R,4S,5S,7R)-7-[(2S,3S,5S)-5-ethyl-5-[(2R,5R,6S)-5-ethyl-5-hydroxy-6-methyloxan-2-yl]-3-methyloxolan-2-yl]-4-hydroxy-3,5-dimethyl-6-oxononyl]-2-hydroxy-3-methylbenzoate]", "values": [
      {"measurement": "ATP assay score (3 μM, 10 μM)", "setting": "3 μM, first value of the cell", "result": "−10"},
      {"measurement": "ATP assay score (3 μM, 10 μM)", "setting": "[1]", "result": "−5"}
    ]},
    {"smiles": "Oc1cc(Cl)ccc1Oc1ccc(Cl)cc1Cl", "note": "[TRICLOSAN, 5-chloro-2-(2,4-dichlorophenoxy)phenol]", "values": [
      {"measurement": "ATP assay score (3 μM, 10 μM)", "setting": "3 μM, first value of the cell", "result": "−7"},
      {"measurement": "ATP assay score (3 μM, 10 μM)", "setting": "[1]", "result": "−5"}
    ]},
    {"smiles": "Oc1c(Cl)cc(Cl)cc1Sc1cc(Cl)cc(Cl)c1O.[Na+]", "note": "[BITHIONATE Na, sodium 2,4-dichloro-6-(3,5-dichloro-2-hydroxyphenyl)sulfanylphenol]", "values": [
      {"measurement": "ATP assay score (3 μM, 10 μM)", "setting": "3 μM, first value of the cell", "result": "−11"},
      {"measurement": "ATP assay score (3 μM, 10 μM)", "setting": "[1]", "result": "−10"}
    ]},
    {"smiles": "Oc1c(Br)cc(Br)c2cccnc12", "note": "[BROXYQUINOLINE, 5,7-dibromoquinolin-8-ol]", "values": [
      {"measurement": "ATP assay score (3 μM, 10 μM)", "setting": "3 μM, first value of the cell", "result": "−11"},
      {"measurement": "ATP assay score (3 μM, 10 μM)", "setting": "[1]", "result": "−8"}
    ]},
    {"smiles": "Oc1c(I)cc(Cl)c2cccnc12", "note": "[CLIOQUINOL, 5-chloro-7-iodoquinolin-8-ol]", "values": [
      {"measurement": "ATP assay score (3 μM, 10 μM)", "setting": "3 μM, first value of the cell", "result": "−11"},
      {"measurement": "ATP assay score (3 μM, 10 μM)", "setting": "[1]", "result": "−7"}
    ]}
  ]
}
